# Reference: patent US20070128217A1 (priority 2003, published 2007)
# Key:
# [1] = system: rabbit serum obtained by immunizing a rabbit with the SARS-CoV strain Frankfurt 1; type: binding; set-up: Binding of a rabbit serum to linear peptides / Binding of a rabbit serum to looped peptides / Rabbit serum linear peptides / Rabbit serum looped peptides / Binding of a rabbit serum to linear peptides of protein N of SARS-CoV Urbani (Rabbit serum linear peptides) / Binding of a rabbit serum to looped/cyclic peptides of protein N of SARS-CoV Urbani (Rabbit serum looped peptides): unit not given here
# [2] = system: antibodies in sera from SARS patients (sera 1a, 1b, 2, 6, 37, 62, London, SARS-yellow, SARS-green); type: binding, human; set-up: Binding of serum 6 to linear peptides of protein X1 of SARS-CoV Urbani / Binding of serum 37 to linear peptides of protein X1 of SARS-CoV Urbani / Binding of serum 6 to looped/cyclic peptide (PEPSCAN-ELISA) / Binding of serum 37 to looped/cyclic peptide (PEPSCAN-ELISA) / Binding of serum 37 to looped/cyclic peptides of protein X1 of SARS-CoV Urbani / Binding of serum 6 to linear peptides of protein X2 / Binding of serum 37 to linear peptides of protein X2 / Binding of serum 37 to looped/cyclic peptides of protein X2 of SARS-CoV Urbani / Binding of serum 6 to linear peptides of protein M of SARS-CoV Urbani / Binding of serum 37 to linear peptides of protein M of SARS-CoV Urbani / Binding of serum 6 to looped/cyclic peptides of protein M of SARS-CoV Urbani / Binding of serum 37 to looped/cyclic peptides of protein M of SARS-CoV Urbani / Binding of serum 6 to linear peptides of protein X3 of SARS-CoV Urbani / Binding of serum 37 to linear peptides of protein X3 of SARS-CoV Urbani / Binding of serum 37 to looped/cyclic peptides of protein X3 of SARS-CoV Urbani / Binding of serum 6 to linear peptides of protein X4 of SARS-CoV Urbani / Binding of serum 37 to linear peptides of protein X4 of SARS-CoV Urbani / Binding of serum 37 to looped/cyclic peptides of protein X4 of SARS-CoV Urbani / Binding of serum 6 to linear peptides of protein X5 of SARS-CoV Urbani / Binding of serum 37 to linear peptides of protein X5 of SARS-CoV Urbani / Binding of serum 37 to looped/cyclic peptides of protein X5 of SARS-CoV Urbani / Binding of serum 6 to linear peptides of protein N of SARS-CoV Urbani / Binding of serum 37 to linear peptides of protein N of SARS-CoV Urbani / Binding of serum 6 to linear peptide (PEPSCAN-ELISA) / Binding of serum 1a to looped/cyclic peptides of protein N of SARS-CoV Urbani / Binding of serum 1b to looped/cyclic peptides of protein N of SARS-CoV Urbani / Binding of serum 2 to looped/cyclic peptides of protein N of SARS-CoV Urbani / Binding of serum 6 to looped/cyclic peptides of protein N of SARS-CoV Urbani / Binding of serum 37 to looped/cyclic peptides of protein N of SARS-CoV Urbani / Binding of serum 62 to looped/cyclic peptides of protein N of SARS-CoV Urbani / Binding of serum London to looped/cyclic peptides of protein N of SARS-CoV Urbani / Binding of serum SARS-green to looped/cyclic peptides of protein N of SARS-CoV Urbani: unit not given here
# [3] = system: control sera (pooled serum of ten healthy LUMC hospital workers; commercial negative donor pooled serum from the Dutch bloodbank); type: binding, human; set-up: Binding of Control serum LUMC to linear peptides / Binding of Control serum Blood-bank to linear peptides / Binding of Control serum LUMC to looped peptides / Binding of Control Serum Blood-Bank to Looped peptides / Binding of Control serum LUMC to linear peptides of the protein M of SARS-CoV Urbani / Binding of Control serum Blood-bank to linear peptides of the protein M of SARS-CoV Urbani / Binding of Control serum LUMC to looped peptides of the protein M of SARS-CoV Urbani / Binding of Control Serum Blood-Bank to Looped peptides of the protein M of SARS-CoV Urbani: unit not given here
sequence,measurement,setting,value
THFAFACADGTRHTY,Rabbit serum linear peptides,[1],0.4
same,Rabbit serum looped peptides,[1],0.5
same,Binding of serum 1a to linear peptides of protein X4 of SARS-CoV Urbani,[2],0.7
same,Binding of serum 1a to looped/cyclic peptides of protein X4 of SARS-CoV Urbani,[2],0.7
same,Binding of serum 1b to linear peptides of protein X4 of SARS-CoV Urbani,[2],0.5
same,Binding of serum 1b to looped/cyclic peptides of protein X4 of SARS-CoV Urbani,[2],0.5
same,Binding of serum 2 to linear peptides of protein X4 of SARS-CoV Urbani,[2],0.5
same,Binding of serum 2 to looped/cyclic peptides of protein X4 of SARS-CoV Urbani,[2],0.5
same,Binding of serum 6 to linear peptides of protein X4 of SARS-CoV Urbani,[2],0.6
same,Binding of serum 6 to looped/cyclic peptides of protein X4 of SARS-CoV Urbani,[2],0.5
same,Binding of serum 37 to linear peptides of protein X4 of SARS-CoV Urbani,[2],0.6
same,Binding of serum 37 to looped/cyclic peptides of protein X4 of SARS-CoV Urbani,[2],0.6
same,Binding of serum 62 to linear peptides of protein X4 of SARS-CoV Urbani,[2],0.7
same,Binding of serum 62 to looped/cyclic peptides of protein X4 of SARS-CoV Urbani,[2],0.6
same,Binding of serum London to linear peptides of protein X4 of SARS-CoV Urbani,[2],0.7
same,Binding of serum London to looped/cyclic peptides of protein X4 of SARS-CoV Urbani,[2],0.3
same,Binding of serum SARS-green to linear peptides of protein X4 of SARS-CoV Urbani,[2],0.5
same,Binding of serum SARS-green to looped/cyclic peptides of protein X4 of SARS-CoV Urbani,[2],0.4
same,Binding of serum SARS-yellow to linear peptides of protein X4 of SARS-CoV Urbani,[2],0.2
same,Binding of serum SARS-yellow to looped/cyclic peptides of protein X4 of SARS-CoV Urbani,[2],0.5
same,Binding of Control Serum Blood-Bank to Looped peptides,[3],0.7
same,Binding of Control serum Blood-bank to linear peptides,[3],0.7
same,Binding of Control serum LUMC to linear peptides,[3],0.7
same,Binding of Control serum LUMC to looped peptides,[3],0.7
AMACIVGLMWLSYFV,Rabbit serum linear peptides,[1],0.4
same,Rabbit serum looped peptides,[1],0.1
same,Binding of serum 1a to linear peptides of protein M of SARS-CoV Urbani,[2],0.7
same,Binding of serum 1a to looped/cyclic peptides of protein M of SARS-CoV Urbani,[2],0.7
same,Binding of serum 1b to linear peptides of protein M of SARS-CoV Urbani,[2],0.5
same,Binding of serum 1b to looped/cyclic peptides of protein M of SARS-CoV Urbani,[2],0.7
same,Binding of serum 2 to linear peptides of protein M of SARS-CoV Urbani,[2],0.6
same,Binding of serum 2 to looped/cyclic peptides of protein M of SARS-CoV Urbani,[2],0.6
same,Binding of serum 6 to linear peptides of protein M of SARS-CoV Urbani,[2],0.4
same,Binding of serum 6 to looped/cyclic peptides of protein M of SARS-CoV Urbani,[2],0.9
same,Binding of serum 37 to linear peptides of protein M of SARS-CoV Urbani,[2],0.6
same,Binding of serum 37 to looped/cyclic peptides of protein M of SARS-CoV Urbani,[2],0.6
same,Binding of serum 62 to linear peptides of protein M of SARS-CoV Urbani,[2],0.6
same,Binding of serum 62 to looped/cyclic peptides of protein M of SARS-CoV Urbani,[2],0.5
same,Binding of serum London to linear peptides of protein M of SARS-CoV Urbani,[2],0.4
same,Binding of serum London to looped/cyclic peptides of protein M of SARS-CoV Urbani,[2],0.2
same,Binding of serum SARS-green to linear peptides of protein M of SARS-CoV Urbani,[2],0.2
same,Binding of serum SARS-green to looped/cyclic peptides of protein M of SARS-CoV Urbani,[2],0.4
same,Binding of serum SARS-yellow to linear peptides of protein M of SARS-CoV Urbani,[2],0.1
same,Binding of serum SARS-yellow to looped/cyclic peptides of protein M of SARS-CoV Urbani,[2],0.6
same,Binding of Control Serum Blood-Bank to Looped peptides of the protein M of SARS-CoV Urbani,[3],0.6
same,Binding of Control serum Blood-bank to linear peptides of the protein M of SARS-CoV Urbani,[3],0.6
same,Binding of Control serum LUMC to linear peptides of the protein M of SARS-CoV Urbani,[3],0.3
same,Binding of Control serum LUMC to looped peptides of the protein M of SARS-CoV Urbani,[3],0.7
NKRWQLALYKGFQFI,Recognition of the peptide by the rabbit serum,[1],recognized
same,Binding of serum 1a to linear peptides of protein X1 of SARS-CoV Urbani,[2],0.7
same,Binding of serum 1a to looped/cyclic peptide (PEPSCAN-ELISA),[2],0.6
same,Binding of serum 1b to linear peptides of protein X1 of SARS-CoV Urbani,[2],0.5
same,Binding of serum 1b to looped/cyclic peptide (PEPSCAN-ELISA),[2],0.4
same,Binding of serum 2 to linear peptides of protein X1 of SARS-CoV Urbani,[2],0.7
same,Binding of serum 2 to looped/cyclic peptide (PEPSCAN-ELISA),[2],0.5
same,Binding of serum 6 to linear peptides of protein X1 of SARS-CoV Urbani,[2],0.8
same,Binding of serum 6 to looped/cyclic peptide (PEPSCAN-ELISA),[2],0.5
same,Binding of serum 37 to linear peptides of protein X1 of SARS-CoV Urbani,[2],0.6
same,Binding of serum 37 to looped/cyclic peptide (PEPSCAN-ELISA),[2],0.6
same,Binding of serum 62 to linear peptides of protein X1 of SARS-CoV Urbani,[2],0.6
same,Binding of serum 62 to looped/cyclic peptide (PEPSCAN-ELISA),[2],0.7
same,Binding of serum London to linear peptides of protein X1 of SARS-CoV Urbani,[2],0.3
same,Binding of serum London to looped/cyclic peptide (PEPSCAN-ELISA),[2],0.4
same,Binding of serum SARS-green to linear peptides of protein X1 of SARS-CoV Urbani,[2],0.3
same,Binding of serum SARS-green to looped/cyclic peptide (PEPSCAN-ELISA),[2],0.2
same,Binding of serum SARS-yellow to linear peptides of protein X1 of SARS-CoV Urbani,[2],0.3
same,Binding of serum SARS-yellow to looped/cyclic peptide (PEPSCAN-ELISA),[2],0.5
same,Binding of Control Serum Blood-Bank to Looped peptides,[3],0.7
same,Binding of Control serum Blood-bank to linear peptides,[3],0.6
same,Binding of Control serum LUMC to linear peptides,[3],0.6
same,Binding of Control serum LUMC to looped peptides,[3],0.7
